Legend:
HBV = HBV genomic replication assays (Table 2); format: cell-based, Hepatitis B virus; settings: class by active concentration
Method in brief: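 Huh7 cells transfected with HBV plasmid received compound at 10 or 50 μM, refreshed every 1-2 days. Core-particle DNA isolated 4-5 days post-transfection was analysed by Southern blot, with or without RNaseH. For the screen, replicating cells got 60, 20 or 6.7 μM, refreshed days 1-2, and plus-strand DNA was quantified on day 3 by cross-gap TaqMan PCR.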

[1] = target: T1, chimeric HBV:HIV RNAseH HHC1 (Hepatitis B virus genotype D subtype ayw, UniProt P03156, DELINS787-795[…]/INS679M); assay: Oligonucleotide-directed RNAseH cleavage assay, chimeric HHC1; format: biochemical; settings: 10 μM; ± standard deviation, 3 to 7 replicates
T1 construct: HHC1 is an HRHPL derivative; made in house; host or cells: E. coli BL21 codon+
Method in brief: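 Bacterially expressed C-terminal His-tagged HHC1 (HRHPL, HBV genotype D pol 684-845, with residues 800-808 swapped for HIV RNAseH helix D) extract mixed with internally 32P-labeled DRF+ RNA and oligonucleotide D2507- (D2526+ negative control), 42 °C, 90 min. Products resolved by 12% SDS-PAGE, autoradiographed and quantified; compounds added in DMSO, DMSO vehicle control.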

T1 sequence (P03156 680-786, added parts left off, stated change not applied): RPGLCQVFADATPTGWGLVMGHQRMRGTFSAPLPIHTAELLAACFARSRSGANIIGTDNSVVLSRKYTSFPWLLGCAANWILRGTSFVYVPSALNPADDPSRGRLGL

Cc1nnc(C(=O)NC(C)(C)c2nc(C(=O)NCc3ccc(F)cc3)c(O)c(=O)n2C)o1 [Compound 11, Raltegravir, reference compound]
Activity vs. HBV Genomic Replication (HBV): − (− no activity at 60 μM)

Cc1c2cc(O)c(=O)cc-2oc2cc(O)c(O)cc12 [Compound 8]
Residual activity at 10 uM, HHC1 [1]: 55 ± 18 Percent DMSO control | Activity vs. HBV Genomic Replication (HBV): − (− no activity at 60 μM)

NCc1ccc(-c2ccc(Cc3cc(=O)n(O)c4ncccc34)cc2)cc1 [Compound 12, napthyridinone]
Residual activity at 10 uM, HHC1 [1]: 32 ± 8 Percent DMSO control | Activity vs. HBV Genomic Replication (HBV): ++ (++, clear activity at <10 μM)

COc1cc2c(cc1Cc1cccc(Cl)c1F)c(=O)c(C(=O)O)cn2[C@H](CO)C(C)C [Compound 10, Elvitegravir, reference compound]
Activity vs. HBV Genomic Replication (HBV): − (− no activity at 60 μM)

CCOc1ccc(-c2c3cc(O)c(=O)cc-3oc3cc(O)c(O)cc23)cc1 [Compound 30]
Residual activity at 10 uM, HHC1 [1]: 58 ± 12 Percent DMSO control | Activity vs. HBV Genomic Replication (HBV): + (+, activity detectable at >10 μM)

Cc1cc(=O)oc2cc(O)c(O)cc12 [Compound 34]
Residual activity at 10 uM, HHC1 [1]: 39 ± 4 Percent DMSO control | Activity vs. HBV Genomic Replication (HBV): − (− no activity at 60 μM)

COc1ccc2ccccc2c1C=NNC(=O)c1cc(O)c(O)c(O)c1 [Compound 14]
Residual activity at 10 uM, HHC1 [1]: 72 ± 2 Percent DMSO control | Activity vs. HBV Genomic Replication (HBV): − (− no activity at 60 μM)

CC(C)c1ccc(O)c(=O)c(O)c1 [Compound 46, beta-thujaplicinol]
Activity vs. HBV Genomic Replication (HBV): ++ (++, clear activity at <10 μM)

[N-]=[N+]=NCc1cccc(C(=O)CC(=O)C(=O)O)c1 [Compound 40]
Residual activity at 10 uM, HHC1 [1]: 44 ± 10 Percent DMSO control | Activity vs. HBV Genomic Replication (HBV): − (− no activity at 60 μM)

Source: patent publication US10329542B2, “HBV RNAse H purification and enzyme inhibitors” (Saint Louis University, priority 2012, dated 2019)
